ChEMBL document CHEMBL4602659, “β,β-Dimethylacrylshikonin Induces Apoptosis in Melanoma Cell Lines by NOXA Upregulation” (J Nat Prod, 2020)
pIC50: −log10 of the molar value. Active and inactive are the calls of the source. The calls are words filed in the database; no cut-off is given here.

Assays:
MUGMel1 [1] = experiment: Cytotoxicity against human MUGMel1 cells assessed as reduction in cell viability after 24 hrs by EZ4U reagent based spectrophotometric method; assay type: functional; details: MUGMel1, 24 h
MUGMel1 [2] = experiment: Cytotoxicity against human MUGMel1 cells assessed as reduction in cell viability after 48 hrs by EZ4U reagent based spectrophotometric method; assay type: functional; details: MUGMel1, 48 h
MUGMel2 [3] = experiment: Cytotoxicity against human MUGMel2 cells harboring NRAS pQ61K mutant assessed as reduction in cell viability after 48 hrs by EZ4U reagent based spectrophotometric method; assay type: functional; details: MUGMel2, 48 h
MRC5 = experiment: Cytotoxicity against human MRC5 cells assessed as reduction in cell viability after 24 hrs by EZ4U reagent based spectrophotometric method; assay type: functional; details: MRC5, 24 h
MUGMel1 [4] = experiment: Induction of apoptosis in human MUGMel1 cells assessed as viable cells at IC50 concentration after 6 hrs by Annexin V/SYTOX Green based flow cytometric analysis (reference value: 96.01%); assay type: functional
MUGMel1 [5] = experiment: Induction of apoptosis in human MUGMel1 cells assessed as late apoptotic cells at IC50 concentration after 6 hrs by Annexin V/SYTOX Green based flow cytometric analysis (reference value: 1.04%); assay type: functional
MUGMel1 [6] = experiment: Induction of apoptosis in human MUGMel1 cells assessed as necrotic cells at IC50 concentration after 6 hrs by Annexin V/SYTOX Green based flow cytometric analysis (reference value: 0.39%); assay type: functional
MUGMel2 [7] = experiment: Induction of apoptosis in human MUGMel2 cells assessed as viable cells at IC50 concentration after 6 hrs by Annexin V/SYTOX Green based flow cytometric analysis (reference value: 91.12%); assay type: functional
WM164 [8] = experiment: Induction of apoptosis in human WM164 cells assessed as late apoptotic cells at IC50 concentration after 6 hrs by Annexin V/SYTOX Green based flow cytometric analysis (reference value: 1.41%); assay type: functional
WM793 [9] = experiment: Induction of apoptosis in human WM793 cells assessed as early apoptotic cells at IC50 concentration after 6 hrs by Annexin V/SYTOX Green based flow cytometric analysis (reference value: 2.77%); assay type: functional
MUGMel1 [10] = experiment: Induction of apoptosis in human MUGMel1 cells assessed as late apoptotic cells at IC50 concentration after 24 hrs by Annexin V/SYTOX Green based flow cytometric analysis (reference value: 1.18%); assay type: functional
MUGMel2 [11] = experiment: Induction of apoptosis in human MUGMel2 cells assessed as viable cells at IC50 concentration after 24 hrs by Annexin V/SYTOX Green based flow cytometric analysis (reference value: 85.95%); assay type: functional
MUGMel2 [12] = experiment: Induction of apoptosis in human MUGMel2 cells assessed as necrotic cells at IC50 concentration after 24 hrs by Annexin V/SYTOX Green based flow cytometric analysis (reference value: 1.1%); assay type: functional
WM793 [13] = experiment: Induction of apoptosis in human WM793 cells assessed as necrotic cells at IC50 concentration after 24 hrs by Annexin V/SYTOX Green based flow cytometric analysis (reference value: 0.17%); assay type: functional
[14] = Cytotoxicity against human A375-S2 cells assessed as reduction in cell viability after 48 hrs by MTT assay; assay type: functional, cell-based; details: A375-S2, 48 h
MUGMel2 [15] = experiment: Induction of apoptosis in human MUGMel2 cells assessed as increase in caspase -3 activity at IC50 concentration after 24 hrs by Alexa Fluor 647 antibody based flow cytometric analysis; assay type: functional, cell-based
MUGMel1 [16] = experiment: Induction of cell cycle arrest in human MUGMel1 cells assessed as increase in S phase at IC50 concentration after 24 to 48 hrs by propidium iodide staining based flow cytometric analysis; assay type: functional
SBcl2 [17] = experiment: Induction of apoptosis in human SBcl2 cells assessed as up regulation of PMAIP1 at IC50 concentration after 24 hrs by mRNA sequencing method relative to control; assay type: functional
WM164 [18] = experiment: Induction of apoptosis in human WM164 cells assessed as up regulation of PMAIP1 at IC50 concentration after 24 hrs by mRNA sequencing method relative to control; assay type: functional
SBcl2 [19] = experiment: Antitumour activity against human SBcl2 cells xenografted in NU(NCr)-Foxn1 mouse assessed as increase in necrotic cells at 2 ug/g administered for three consecutive days with 1 day interval for four cycle by hematoxylin and eosin staining based microscopic analysis; assay type: functional
WM164 [20] = experiment: Antitumour activity against human WM164 cells xenografted in NU(NCr)-Foxn1 mouse assessed as increase in caspase -activity at 1 to 4 ug/g administered for three consecutive days with 1 day interval for four cycle by hematoxylin and eosin staining based microscopic analysis; assay type: functional, cell-based
WM164 [21] = experiment: Induction of apoptosis in human WM164 cells assessed as up regulation of NOXA protein expression at IC50 concentration after 24 hrs by Western blot analysis; assay type: functional, cell-based
MUGMel2 [22] = experiment: Induction of apoptosis in human MUGMel2 cells assessed as up regulation of NOXA protein expression at IC50 concentration after 24 hrs by Western blot analysis; assay type: functional, cell-based
WM793 [23] = experiment: Induction of apoptosis in human WM793 cells assessed as effect on BAD mRNA expression at IC50 concentration after 6 to 24 hrs by RT-qPCR analysis; assay type: functional, cell-based
SBcl2 [24] = experiment: Induction of apoptosis in human SBcl2 cells assessed as effect on BAD mRNA expression at IC50 concentration after 6 to 24 hrs by RT-qPCR analysis; assay type: functional, cell-based
MUGMel2 [25] = experiment: Induction of apoptosis in human MUGMel2 cells assessed as effect on BAD mRNA expression at IC50 concentration after 6 to 24 hrs by RT-qPCR analysis; assay type: functional, cell-based
MUGMel1 [26] = experiment: Induction of apoptosis in human MUGMel1 cells assessed as effect on BAD mRNA expression at IC50 concentration after 6 to 24 hrs by RT-qPCR analysis; assay type: functional, cell-based
WM164 [27] = experiment: Induction of apoptosis in human WM164 cells assessed as up regulation of NOXA at IC50 concentration after 6 to 24 hrs by RT-qPCR analysis; assay type: functional, cell-based
SBcl2 [28] = experiment: Induction of apoptosis in human SBcl2 cells assessed as up regulation of NOXA at IC50 concentration after 6 to 24 hrs by RT-qPCR analysis; assay type: functional, cell-based
WM164 [29] = experiment: Induction of apoptosis in human WM164 cells treated with scrambled si-RNA assessed as caspase -activity at IC50 concentration after 24 hrs by Western blot analysis; assay type: functional, cell-based
WM793 [30] = experiment: Induction of apoptosis in human WM793 cells assessed as effect on BAX protein expression at IC50 concentration after 24 hrs by Western blot analysis; assay type: functional, cell-based
WM164 [31] = experiment: Induction of apoptosis in human WM164 cells assessed as effect on BAD protein expression at IC50 concentration after 24 hrs by Western blot analysis; assay type: functional, cell-based
SBcl2 [32] = experiment: Induction of apoptosis in human SBcl2 cells assessed as effect on BAX protein expression at IC50 concentration after 24 hrs by Western blot analysis; assay type: functional, cell-based
MUGMel1 [33] = experiment: Induction of apoptosis in human MUGMel1 cells assessed as effect on BAX protein expression at IC50 concentration after 24 hrs by Western blot analysis; assay type: functional, cell-based
MUGMel1 [34] = experiment: Induction of apoptosis in human MUGMel1 cells assessed as effect on BAD protein expression at IC50 concentration after 24 hrs by Western blot analysis; assay type: functional, cell-based

## CC(C)=CC[C@@H](OC(=O)C=C(C)C)C1=CC(=O)c2c(O)ccc(O)c2C1=O [DIMETHYLACRYLSHIKONIN]
MUGMel1 [1]
  pIC50: 5.72
MUGMel1 [2]
  pIC50: 5.96
MUGMel2 [3]
  pIC50: 5.64
MRC5
  pIC50: 5.02
MUGMel1 [4]
  Activity: 94.02%
MUGMel1 [5]
  Activity: 2.36%
MUGMel1 [6]
  Activity: 0.11%
MUGMel2 [7]
  Activity: 75.52%
WM164 [8]
  Activity: 8.65%
WM793 [9]
  Activity: 8.45%
MUGMel1 [10]
  Activity: 10.11%
MUGMel2 [11]
  Activity: 45.04%
MUGMel2 [12]
  Activity: 0.16%
WM793 [13]
  Activity: 0.22%
[14]
  pIC50: 5.15
MUGMel2 [15]
  Activity: Active
MUGMel1 [16]
  Activity: Active
SBcl2 [17]
  fold change (FC): 1.37
WM164 [18]
  fold change (FC): 1.6
SBcl2 [19]
  Activity: 50%
WM164 [20]
  Activity: Active
WM164 [21]
  Activity: Active
MUGMel2 [22]
  Activity: Active
WM793 [23]
  Activity: inactive
SBcl2 [24]
  Activity: inactive
MUGMel2 [25]
  Activity: inactive
MUGMel1 [26]
  Activity: inactive
WM164 [27]
  Activity: Active
SBcl2 [28]
  Activity: Active
WM164 [29]
  Activity: inactive
WM793 [30]
  Activity: inactive
WM164 [31]
  Activity: inactive
SBcl2 [32]
  Activity: inactive
MUGMel1 [33]
  Activity: inactive
MUGMel1 [34]
  Activity: inactive
